Format in all cases: in vivo
Series [1] relates to ORYSA SATIVA Cv Nihonbare. The series is described as follows: Exemple D: herbicide application on submerged plants (rice paddy model), transplanted rice. The settings on record: rice transplanted 4 days before treatment, 24 days. The text has this:
(§1) Exemple D : Application herbicide en pré ou post levée d'espèces végétales submergées (modèle rizière)
(§2) Dans des pots de 9 x 9 x 9 cm remplis de terre agricole on sème un nombre de graines ou on plante un nombre de bulbes ou rhizomes déterminé en fonction de l'espèce végétale ou de la grosseur des organes. Pour le riz, 4 plants au stade 2-3 feuilles sont transplantés dans un pot rempli de terre végétale 4 jours avant le traitement.
(§3) Les pots sont ensuite immergés dans un bac de taille adapté aux pots de manière à ce que l'eau recouvre de 1 à 2 cm la surface du sol.
(§4) Le stade de traitement est le stade prélevée ou 1 à 2 feuilles développées des adventices. Le traitement est effectué par répartition de la bouillie dans l'eau de submersion en quantité correspondant à une dose d'application de 500 l/ha et contenant la matière active à la concentration requise.
(§5) La bouillie utilisée pour le traitement est une solution ou suspension de la matière active dans un mélange acétone/eau en proportion 50/50, en présence de 0,05 % en poids de Cemulsol NP 10 (agent tensioactif constitué d'alkylphénol polyéthoxylé, notamment de nonylphénol polyéthoxylé) et 0,04 % en poids de tween 20 (agent tensio-actif constitué d'un oléate de dérivé polyoxyéthyléné du sorbitol).
(§6) Dans le cas d'une suspension, celle-ci est obtenue en mélangeant et broyant les ingrédients dans un microniseur de façon à obtenir une grosseur moyenne de particules inférieures à 40 microns.
(§7) Le niveau d'eau de submersion est ensuite maintenu par apport d'eau tout au long de la durée de l'expérimentation soit […]. Les bacs contenant les pots sont placés dans une serre régulée en température à 18°C la nuit et 22°C le jour et en humidité à 70 % d'humidité relative.
(§8) Au bout de 24 jours, on compte le nombre de plantes vivantes dans les pots traités par la bouillie contenant la matière active à tester et le nombre de plantes vivantes dans un pot témoin traité selon les mêmes conditions, mais au moyen d'une bouillie ne contenant pas de matière active. On mesure ainsi un pourcentage (D) des destructions du nombre de pieds dans le pot traité par rapport au nombre de plantes dans les pots non traités (témoin). On mesure, sur les plantes traitées restantes, le pourcentage de réduction de taille (RT) par rapport aux plantes témoin. Le pourcentage du volume foliaire non détruit par le produit est donc donné par la formule: ([100-D] x [100-RT])/(100)= A [formula]
(§9) Cette valeur A est transformée en notation de 0 à 5 selon l'échelle suivante:
(§10) Les résultats obtenus sont présentés dans le tableau suivant pour des doses d'application de 500, 1000 ou 2000 g de matière active par hectare.
COMPOSE N°5/RIZ (transplanté 4 jours avant traitement)

In the next series the test system is ALISMA CANALICULATUM
The series is described as follows: Exemple D: herbicide application pre or post emergence on submerged plants (rice paddy model). The settings on record: 2-leaf stage, 24 days.
Description: as §1, §2, §3, §4, §5, §6, §7, §8, §9, §10

Another series has as its system Echinochloa crus galli. The description is as above. The settings on record: 24 days; for % d'efficacité ECHINOCHLOA CRUS GALLI (1 feuille): 1-leaf stage; for % d'efficacité ECHINOCHLOA CRUS GALLI (prélevée): pre-emergence.
Description: as §1, §2, §3, §4, §5, §6, §7, §8, §9, §10

The subject of another series is CYPERUS SEROTINUS
The series is described as above. The settings on record: 24 days; for % d'efficacité CYPERUS SEROTINUS (1 feuille): 1-leaf stage; for % d'efficacité CYPERUS SEROTINUS (prélevée): pre-emergence.
Description: as §1, §2, §3, §4, §5, §6, §7, §8, §9, §10

Where [2] appears, read: 500 g de matière active par hectare.
Setting [3] is: 1000 g de matière active par hectare.

Regarding `CCCCOCN(C(=O)CCl)c1c(CC)cccc1CC` [Butachlor, reference compound], the “% d'efficacité ORYSA SATIVA Cv Nihonbare” value in series [1] (setting [2]) and in series [1] (setting [3]) was 0 (90 à 100) in each case. In addition, the results for the “% d'efficacité ALISMA CANALICULATUM (2 feuilles)” value in the series on ALISMA CANALICULATUM (setting [2]) and in the series on ALISMA CANALICULATUM (setting [3]) were 4 (10 à 30) and 5 (0 à 10), respectively. Moreover, the entries for the “% d'efficacité ECHINOCHLOA CRUS GALLI (1 feuille)” value with Echinochloa crus galli (setting [2]) and with Echinochloa crus galli (setting [3]) were 1 (70 à 90) and 4 (10 à 30), respectively. The “% d'efficacité ECHINOCHLOA CRUS GALLI (prélevée)” value in the series on Echinochloa crus galli (setting [2]) and with Echinochloa crus galli (setting [3]) was 5 (0 à 10) throughout. Also, the “% d'efficacité CYPERUS SEROTINUS (1 feuille)” value in the series on CYPERUS SEROTINUS (setting [2]) is recorded as 0 (90 à 100); in the series on CYPERUS SEROTINUS (setting [3]), 1 (70 à 90). The “% d'efficacité CYPERUS SEROTINUS (prélevée)” value was 0 (90 à 100) with CYPERUS SEROTINUS (setting [2]) and 1 (70 à 90) in the series with CYPERUS SEROTINUS (setting [3]).

The values above are taken from EP0435794A1, “Alkenyl- or heteroaryl thio, sulfone, sulfoxy herbicides” (RHONE-POULENC AGROCHIMIE, priority 1989, dated 1991).
